From patent US9642787B2, “Method of inhibiting copper deposition on hair” (The Procter & Gamble Company, priority 2014, dated 2017)

Key:
[1] = Formation Constant (Log KML) of metal chelant complex with copper; assay type: physicochemical; details: formation constant for copper, concentrations in mol/dm^3, logarithm
Excerpt: (§1) The Formation Constant of a metal chelant interaction is defined as: [formula] where: [ML]=concentration of metal ligand complex at equilibrium [M]=concentration of free metal ion [L]=concentration of free ligand in a fully deprotonated form KML=formation constant for the metal chelant complex. All concentrations are expressed in mol/dm^3. Formation Constants are conveniently expressed as logarithms.

[2] = Formation Constant (Log KML) of metal chelant complex with calcium; assay type: physicochemical; details: formation constant for calcium, concentrations in mol/dm^3, logarithm
Excerpt: as §1

SMILES | Log KML Cu [1] | Log KML Ca [2]
NCC(=O)O [Glycine] | 8.2 | 1.1
N[C@@H](Cc1c[nH]c2ccccc12)C(=O)O [Tryptophan] | 8.2 | –
O=C(O)CC(NCCNC(CC(=O)O)C(=O)O)C(=O)O (centres unmarked) [EDDS, ethylenediamine-N,N′-disuccinic acid] | 18.4 | 4.6
N[C@@H](Cc1c[nH]cn1)C(=O)O [Histidine] | 10.2 | 1.2
O=C(O)[C@@H]1CCCN1 [Proline] | 8.8 | –
NC(=O)CC[C@H](N)C(=O)O [Glutamine] | 7.7 | –
NC(=O)C[C@H](N)C(=O)O [Asparagine] | 7.8 | –
C[C@H](N)C(=O)O [Alanine] | 8.1 | 1.3
N[C@@H](CO)C(=O)O [Serine] | 7.9 | 1.4
